# Data published in ChEMBL document CHEMBL4177646, “Discovery of novel nitroimidazole enols as Pseudomonas aeruginosa DNA cleavage agents” (Bioorg Med Chem, 2017).
# Activity calls are given as the source filed them. The calls are words filed in the database; no cut-off is given here.
# How the values were obtained:
# Candida tropicalis [1] = test: Potency index, ratio of fluconazole MIC to compound MIC for Candida tropicalis; type: functional
# Albumin [2] = target: T1, Albumin (Homo sapiens, UniProt P02768); test: Binding affinity to HSA assessed as modified Stern-Volmer quenching constant at pH 7.4 at 300 K by fluorescence assay; type: ADME; settings: isolated protein
# Candida albicans [3] = test: Antifungal activity against drug-resistant Candida albicans after 24 hrs by micro broth dilution method; type: functional
# Albumin [4] = target: T1, Albumin; test: Binding affinity to HSA assessed as equilibrium binding constant at pH 7.4 at 313 K by scatchard assay; type: ADME; settings: isolated protein
# Candida albicans [5] = test: Antifungal activity against Candida albicans ATCC 90023 after 24 hrs by micro broth dilution method; type: functional; settings: ATCC 90023, 24 h
# Pseudomonas aeruginosa [6] = test: Bactericidal activity against drug sensitive Pseudomonas aeruginosa assessed as bacterial load at 4 times MIC after 150 mins by time-kill assay (reference value: 4.3 10^6 CFU/ml); type: functional
# Escherichia coli [7] = test: Antibacterial activity against drug-resistant Escherichia coli after 24 hrs by micro broth dilution method; type: functional
# Pseudomonas aeruginosa [8] = test: Antibacterial activity against drug-resistant Pseudomonas aeruginosa after 24 hrs by micro broth dilution method; type: functional
# Staphylococcus aureus [9] = test: Antibacterial activity against Staphylococcus aureus ATCC 25923 after 24 hrs by micro broth dilution method; type: functional; settings: ATCC 25923, 24 h
# Pseudomonas aeruginosa [10] = test: Potency index, ratio of norfloxacin MIC to compound MIC for Pseudomonas aeruginosa ATCC 27853; type: functional
# Staphylococcus aureus [11] = test: Antibacterial activity against drug-resistant Staphylococcus aureus after 24 hrs by micro broth dilution method; type: functional
# Pseudomonas aeruginosa [12] = test: Antibacterial activity against Pseudomonas aeruginosa ATCC 27853 after 24 hrs by micro broth dilution method; type: functional; settings: ATCC 27853, 24 h
# Albumin [13] = target: T1, Albumin; test: Binding affinity to HSA assessed as Stern-Volmer quenching constant at pH 7.4 at 290 K by fluorescence assay; type: ADME; settings: isolated protein
# DNA [14] = test: Binding affinity to sensitive Pseudomonas aeruginosa DNA assessed as hypochromic effect at 3.81 x 10^-6mol/L by neutral red dye based UV-vis spectroscopic method; type: nucleic-acid assay
# DNA [15] = test: Induction of sensitive Pseudomonas aeruginosa DNA cleavage at 75 uM by ethidium bromide staining-based agarose gel electrophoresis; type: nucleic-acid assay
# Candida tropicalis [16] = test: Antifungal activity against Candida tropicalis after 24 hrs by micro broth dilution method; type: functional
# Pseudomonas aeruginosa [17] = test: Bactericidal activity against drug sensitive Pseudomonas aeruginosa assessed as log reduction in bacterial load at 4 times MIC after 120 mins by time-kill assay; type: functional
# Pseudomonas aeruginosa [18] = test: Bactericidal activity against drug sensitive Pseudomonas aeruginosa assessed as bacterial load at 4 times MIC after 270 mins by time-kill assay (reference value: 1.8 10^10 CFU/ml); type: functional
# DNA [19] = test: Binding affinity to sensitive Pseudomonas aeruginosa DNA assessed as hypochromic effect by neutral red dye based UV-vis spectroscopic method; type: nucleic-acid assay
# Pseudomonas aeruginosa [20] = test: Bactericidal activity against drug sensitive Pseudomonas aeruginosa assessed as bacterial load at 4 times MIC after 210 mins by time-kill assay (reference value: 3.2 10^9 CFU/ml); type: functional
# Albumin [21] = target: T1, Albumin; test: Binding affinity to HSA assessed as biomolecular quenching rate constant at pH 7.4 at 300 K by fluorescence assay; type: ADME; settings: isolated protein
# Albumin [22] = target: T1, Albumin; test: Binding affinity to HSA assessed as biomolecular quenching rate constant at pH 7.4 at 313 K by fluorescence assay; type: ADME; settings: isolated protein
# Pseudomonas aeruginosa [23] = test: Bactericidal activity against drug sensitive Pseudomonas aeruginosa assessed as bacterial load at 4 times MIC after 180 mins by time-kill assay (reference value: 3.5 10^7 CFU/ml); type: functional
# Albumin [24] = target: T1, Albumin; test: Binding affinity to HSA assessed as equilibrium binding constant at pH 7.4 at 300 K by scatchard assay; type: ADME; settings: isolated protein
# Staphylococcus aureus [25] = test: Antibacterial activity against methicillin-resistant Staphylococcus aureus N315 after 24 hrs by micro broth dilution method; type: functional; settings: N315, 24 h
# Albumin [26] = target: T1, Albumin; test: Binding affinity to HSA assessed as Stern-Volmer quenching constant at pH 7.4 at 313 K by fluorescence assay; type: ADME; settings: isolated protein
# Albumin [27] = target: T1, Albumin; test: Binding affinity to HSA assessed as biomolecular quenching rate constant at pH 7.4 at 290 K by fluorescence assay; type: ADME; settings: isolated protein
# Pseudomonas aeruginosa [28] = test: Bactericidal activity against drug sensitive Pseudomonas aeruginosa assessed as bacterial load at 4 times MIC after 120 mins by time-kill assay (reference value: 9.3 10^5 CFU/ml); type: functional
# Pseudomonas aeruginosa [29] = test: Bactericidal activity against drug sensitive Pseudomonas aeruginosa assessed as bacterial load at 4 times MIC after 240 mins by time-kill assay (reference value: 1.1 10^10 CFU/ml); type: functional
# Albumin [30] = target: T1, Albumin; test: Binding affinity to HSA assessed as modified Stern-Volmer quenching constant at pH 7.4 at 290 K by fluorescence assay; type: ADME; settings: isolated protein
# Staphylococcus aureus [31] = test: Antibacterial activity against Staphylococcus aureus ATCC 29213 after 24 hrs by micro broth dilution method; type: functional; settings: ATCC 29213, 24 h
# Albumin [32] = target: T1, Albumin; test: Binding affinity to HSA assessed as modified Stern-Volmer quenching constant at pH 7.4 at 313 K by fluorescence assay; type: ADME; settings: isolated protein
# Escherichia coli [33] = test: Antibacterial activity against Escherichia coli ATCC 25922 after 24 hrs by micro broth dilution method; type: functional; settings: ATCC 25922, 24 h
# Albumin [34] = target: T1, Albumin; test: Binding affinity to HSA assessed as Stern-Volmer quenching constant at pH 7.4 at 300 K by fluorescence assay; type: ADME; settings: isolated protein
# Albumin [35] = target: T1, Albumin; test: Binding affinity to HSA assessed as equilibrium binding constant at pH 7.4 at 290 K by scatchard assay; type: ADME; settings: isolated protein
# Pseudomonas aeruginosa [36] = test: Potency index, ratio of metronidazole MIC to compound MIC for Pseudomonas aeruginosa ATCC 27853; type: functional
# T1 sequence (P02768 whole entry): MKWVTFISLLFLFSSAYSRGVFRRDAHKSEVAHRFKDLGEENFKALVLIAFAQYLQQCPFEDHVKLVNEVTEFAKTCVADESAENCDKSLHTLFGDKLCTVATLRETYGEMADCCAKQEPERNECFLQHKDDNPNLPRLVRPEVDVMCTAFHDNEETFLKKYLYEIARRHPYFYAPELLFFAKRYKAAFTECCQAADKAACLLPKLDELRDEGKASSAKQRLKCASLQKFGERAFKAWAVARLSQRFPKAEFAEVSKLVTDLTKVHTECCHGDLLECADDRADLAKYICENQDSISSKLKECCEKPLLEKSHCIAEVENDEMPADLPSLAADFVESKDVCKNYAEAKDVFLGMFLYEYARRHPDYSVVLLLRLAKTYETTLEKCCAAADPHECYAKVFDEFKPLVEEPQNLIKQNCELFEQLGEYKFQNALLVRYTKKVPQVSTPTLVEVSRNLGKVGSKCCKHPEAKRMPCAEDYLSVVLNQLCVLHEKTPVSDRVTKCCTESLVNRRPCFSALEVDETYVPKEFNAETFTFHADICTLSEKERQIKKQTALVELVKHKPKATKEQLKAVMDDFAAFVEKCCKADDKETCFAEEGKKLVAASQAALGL
smiles,measurement,setting,value
COc1cc(/C=C(\C(C)O)n2c([N+](=O)[O-])cnc2C)ccc1O (stereo not given),Ratio,Candida tropicalis [1],4
same,KSV,Albumin [2],61800 M⁻¹
same,MIC,Candida albicans [3],256 µg/mL
same,Kb,Albumin [4],4.83 ×10⁴ L/mol
same,MIC,Candida albicans [5],32 µg/mL
same,Activity,Pseudomonas aeruginosa [6],3 ×10³ CFU/ml
same,MIC,Escherichia coli [7],1600 µM
same,MIC,Pseudomonas aeruginosa [8],400 µM
same,MIC,Staphylococcus aureus [9],800 µM
same,Ratio,Pseudomonas aeruginosa [10],4 - 16
same,MIC,Staphylococcus aureus [11],1600 µM
same,MIC,Pseudomonas aeruginosa [12],100 µM
same,KSV,Albumin [13],7.54 ×10⁴ L/mol
same,Activity,DNA [14],Active
same,Activity,DNA [15],Active
same,MIC,Candida tropicalis [16],128 µg/mL
same,Activity,Pseudomonas aeruginosa [17],>3.5 log10CFU/ml
same,Activity,Pseudomonas aeruginosa [18],65 CFU/ml
same,K,DNA [19],1.83 ×10⁴ L/mol
same,Activity,Pseudomonas aeruginosa [20],87 CFU/ml
same,Kq,Albumin [21],9.56 ×10¹³ L/mol/s
same,Kq,Albumin [22],7.79 ×10¹³ L/mol/s
same,Activity,Pseudomonas aeruginosa [23],1.5 ×10² CFU/ml
same,Kb,Albumin [24],4.77 ×10⁴ L/mol
same,MIC,Staphylococcus aureus [25],1600 µM
same,KSV,Albumin [26],4.99 ×10⁴ L/mol
same,Kq,Albumin [27],1.18 ×10¹³ L/mol/s
same,Activity,Pseudomonas aeruginosa [28],9.3 ×10⁶ CFU/ml
same,Activity,Pseudomonas aeruginosa [29],72 CFU/ml
same,KSV,Albumin [30],82200 M⁻¹
same,MIC,Staphylococcus aureus [31],800 µM
same,KSV,Albumin [32],47400 M⁻¹
same,MIC,Escherichia coli [33],400 µM
same,KSV,Albumin [34],6.12 ×10⁴ L/mol
same,Kb,Albumin [35],4.77 ×10⁴ L/mol
Cc1ccc(/C=C(\C(C)O)n2c([N+](=O)[O-])cnc2C)cc1 (stereo not given),MIC,Candida albicans [3],512 µg/mL
same,MIC,Candida albicans [5],64 µg/mL
same,MIC,Escherichia coli [7],1780 µM
same,MIC,Pseudomonas aeruginosa [8],890 µM
same,MIC,Staphylococcus aureus [9],890 µM
same,Ratio,Pseudomonas aeruginosa [10],4
same,MIC,Staphylococcus aureus [11],1780 µM
same,MIC,Pseudomonas aeruginosa [12],440 µM
same,Ratio,Pseudomonas aeruginosa [36],7
same,MIC,Candida tropicalis [16],128 µg/mL
same,MIC,Staphylococcus aureus [25],1780 µM
same,MIC,Staphylococcus aureus [31],1780 µM
same,MIC,Escherichia coli [33],440 µM
CC(=O)/C(=C\c1ccccc1)n1c([N+](=O)[O-])cnc1C,MIC,Candida albicans [3],256 µg/mL
same,MIC,Candida albicans [5],32 µg/mL
same,MIC,Escherichia coli [7],940 µM
same,MIC,Pseudomonas aeruginosa [8],470 µM
same,MIC,Staphylococcus aureus [9],470 µM
same,Ratio,Pseudomonas aeruginosa [10],4 - 16
same,MIC,Staphylococcus aureus [11],940 µM
same,MIC,Pseudomonas aeruginosa [12],470 µM
same,MIC,Candida tropicalis [16],128 µg/mL
same,MIC,Staphylococcus aureus [25],1880 µM
same,MIC,Staphylococcus aureus [31],940 µM
same,MIC,Escherichia coli [33],230 µM
CC(=O)/C(=C\c1ccc(F)cc1)n1c([N+](=O)[O-])cnc1C,MIC,Candida albicans [3],256 µg/mL
same,MIC,Candida albicans [5],128 µg/mL
same,MIC,Escherichia coli [7],1760 µM
same,MIC,Pseudomonas aeruginosa [8],880 µM
same,MIC,Staphylococcus aureus [9],880 µM
same,Ratio,Pseudomonas aeruginosa [10],4 - 16
same,MIC,Staphylococcus aureus [11],1760 µM
same,MIC,Pseudomonas aeruginosa [12],440 µM
same,MIC,Candida tropicalis [16],256 µg/mL
same,MIC,Staphylococcus aureus [25],1760 µM
same,MIC,Staphylococcus aureus [31],1760 µM
same,MIC,Escherichia coli [33],110 µM
Cc1ncc([N+](=O)[O-])n1/C(=C/c1ccc(N(C)C)cc1)C(C)O (stereo not given),MIC,Candida albicans [3],512 µg/mL
same,MIC,Candida albicans [5],64 µg/mL
same,MIC,Escherichia coli [7],1620 µM
same,MIC,Pseudomonas aeruginosa [8],1620 µM
same,MIC,Staphylococcus aureus [9],810 µM
same,Ratio,Pseudomonas aeruginosa [10],4
same,MIC,Staphylococcus aureus [11],1620 µM
same,MIC,Pseudomonas aeruginosa [12],400 µM
same,Ratio,Pseudomonas aeruginosa [36],7
same,MIC,Candida tropicalis [16],128 µg/mL
same,MIC,Staphylococcus aureus [25],1620 µM
same,MIC,Staphylococcus aureus [31],1620 µM
same,MIC,Escherichia coli [33],810 µM
